Counter-ions that a name gives are not always drawn.
Tests used:
[1] = tested on: effects of methamphetamine; conditions: mice; ref 33 (compound 1), ref 35 (compound 2, pretreatment); cited from earlier work
[2] = tested on: effects of cocaine; conditions: cited from earlier work; for Effects against cocaine in behavioral models: rodents, ref 32 (compound 1), ref 34 (compound 2)
[3] = target: serotonin transporters (Rattus norvegicus, UniProt P31652); test: Serotonin transporter binding; conditions: ratio of Ki serotonin transporter to Ki σ2R
[4] = target: norepinephrine transporters (Rattus norvegicus, UniProt Q63380); test: Norepinephrine transporter binding
[5] = target: Serotonin (5-HT2) receptors (Rattus norvegicus, UniProt P14842); test: Serotonin; assay type: binding; conditions: ratio of Ki 5-HT2 to Ki σ2R
[6] = tested on: cocaine-induced convulsions; test: In vivo cocaine-induced convulsion studies; conditions: mice, 10 mg/kg i.p. pretreatment; P<0.005 vs vehicle, Fisher's exact test
[7] = target: T1, σ2R (Rattus norvegicus, UniProt Q5U3Y7); test: σ2R radioligand competition binding; conditions: selectivity ratio σ1R over σ2R
T1 sequence (Q5U3Y7 1-176): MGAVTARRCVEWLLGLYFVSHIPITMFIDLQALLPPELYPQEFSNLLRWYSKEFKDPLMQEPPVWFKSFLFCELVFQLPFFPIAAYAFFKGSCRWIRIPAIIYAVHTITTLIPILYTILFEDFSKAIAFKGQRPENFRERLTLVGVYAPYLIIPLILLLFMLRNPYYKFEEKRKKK

norepinephrine transporters, sequence (Q63380 1-617): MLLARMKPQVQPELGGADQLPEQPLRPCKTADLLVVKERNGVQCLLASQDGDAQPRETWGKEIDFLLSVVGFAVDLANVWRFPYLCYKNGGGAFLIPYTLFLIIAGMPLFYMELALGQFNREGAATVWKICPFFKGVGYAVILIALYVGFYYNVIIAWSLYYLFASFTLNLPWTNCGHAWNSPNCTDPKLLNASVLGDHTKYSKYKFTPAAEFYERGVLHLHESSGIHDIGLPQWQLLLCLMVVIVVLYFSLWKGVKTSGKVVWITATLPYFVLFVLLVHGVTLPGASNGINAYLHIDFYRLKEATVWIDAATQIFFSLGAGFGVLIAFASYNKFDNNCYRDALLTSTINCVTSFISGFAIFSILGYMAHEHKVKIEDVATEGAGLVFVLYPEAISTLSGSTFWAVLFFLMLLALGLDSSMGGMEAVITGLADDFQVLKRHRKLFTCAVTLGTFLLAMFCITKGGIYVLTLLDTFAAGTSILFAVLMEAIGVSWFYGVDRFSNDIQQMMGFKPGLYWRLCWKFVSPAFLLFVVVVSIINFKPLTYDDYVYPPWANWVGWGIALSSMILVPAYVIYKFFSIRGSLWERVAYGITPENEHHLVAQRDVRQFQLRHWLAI
serotonin transporters, sequence (P31652 whole entry): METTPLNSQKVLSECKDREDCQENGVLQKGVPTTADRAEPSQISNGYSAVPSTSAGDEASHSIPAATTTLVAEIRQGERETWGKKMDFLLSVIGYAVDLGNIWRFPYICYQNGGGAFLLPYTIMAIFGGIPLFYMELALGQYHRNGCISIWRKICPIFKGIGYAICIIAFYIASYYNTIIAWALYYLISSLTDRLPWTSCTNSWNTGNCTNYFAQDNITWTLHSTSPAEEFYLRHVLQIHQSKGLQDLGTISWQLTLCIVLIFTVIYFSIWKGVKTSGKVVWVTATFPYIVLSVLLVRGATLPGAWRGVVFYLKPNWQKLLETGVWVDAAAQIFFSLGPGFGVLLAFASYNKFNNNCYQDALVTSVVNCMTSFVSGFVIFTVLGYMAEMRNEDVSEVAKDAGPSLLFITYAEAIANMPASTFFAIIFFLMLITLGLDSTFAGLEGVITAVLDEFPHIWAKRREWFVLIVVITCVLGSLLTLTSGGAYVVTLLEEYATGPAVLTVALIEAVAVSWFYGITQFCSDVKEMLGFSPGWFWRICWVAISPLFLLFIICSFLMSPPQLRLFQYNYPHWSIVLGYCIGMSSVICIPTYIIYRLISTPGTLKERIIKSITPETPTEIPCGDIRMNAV
Serotonin (5-HT2) receptors, sequence (P14842 whole entry): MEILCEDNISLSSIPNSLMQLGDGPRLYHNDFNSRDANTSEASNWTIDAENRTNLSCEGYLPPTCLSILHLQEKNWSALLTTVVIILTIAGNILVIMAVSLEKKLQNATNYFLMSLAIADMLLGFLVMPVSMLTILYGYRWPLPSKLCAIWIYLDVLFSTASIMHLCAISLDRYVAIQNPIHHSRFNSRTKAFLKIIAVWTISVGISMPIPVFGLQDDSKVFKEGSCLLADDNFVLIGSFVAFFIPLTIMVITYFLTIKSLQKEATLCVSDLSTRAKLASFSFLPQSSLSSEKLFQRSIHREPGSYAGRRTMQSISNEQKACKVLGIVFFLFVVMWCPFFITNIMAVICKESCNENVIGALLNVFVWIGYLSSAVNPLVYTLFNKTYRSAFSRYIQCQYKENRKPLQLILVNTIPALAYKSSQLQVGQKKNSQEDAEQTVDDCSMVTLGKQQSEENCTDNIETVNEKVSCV

SMILES	Effects against methamphetamine [1]	Effects against cocaine in behavioral models [2]	Ki [4] [µM]	further results
CC(=O)c1ccc2c(c1)oc(=O)n2CCCCN1CCN(c2ccc(F)cc2)CC1 [Compound 2, 6-acetyl-3-{4-[4-(4-fluorophenyl)piperazin-1-yl]butyl}-2(3H)-benzoxazolone]	afforded protection against methamphetamine-induced hyperthermia, and striatal dopaminergic and serotonergic neurotoxicity	reduced the toxic and stimulant effects of cocaine		Sedation and incoordination ([2]; acute treatment): caused sedation and incoordination
CCCCCn1c(=O)n(CCCCN2CCN(c3ccc(F)cc3)CC2)c2ccccc21 [Compound 15, 1-{4-[4-(4-fluorophenyl)piperazin-1-yl]butyl}-3-pentyl-1,3-dihydrobenzimidazol-2-one dihydrochloride]			> 10	5-HTT/σ2R selectivity for σ2Rs [3]: 104 fold; 5-HT2/σ2R preference for σ2Rs [5]: 58 fold
S=c1sc2ccccc2n1CCCCN1CCN(C2CCCCC2)CC1 [Compound 1, 3-[4-(4-cyclohexylpiperazin-1-yl)butyl]-2(3H)-benzothiazolethione]	mitigate the effects of methamphetamine	produced both acute and subchronic effects against cocaine		
CCCn1c(=O)n(CCCCN2CCN(c3ccc(F)cc3)CC2)c2ccccc21 [Compound 14]			> 10	Protective effect against cocaine-induced convulsions, statistical significance [6]: statistically significant; Ki σ1/ Ki σ2 [7]: > 1000

From paper PMC6369001 (European journal of medicinal chemistry, 2019)
